Series [1] deals with IEC-18 cells. In words: Indomethacin-induced apoptosis of IEC-18 cells (flow cytometry). As to conditions: 24 h, FIG. 1. It is filed as cell-based, rat. The method, then: Rat ileum epithelial cells identified as IEC-18, were purchased from ATCC. The cells were seeded and cultured overnight. In three (3) series of tests, each of PGE2, prostaglandin EP4 agonist 1 and prostaglandin EP4 agonist prodrug 3 was given at one or two concentrations to separate samples of the cells in a serum-free medium. One hour later, the non-steroidal anti-inflammatory drug (NSAID) indomethacin at 100 μM was added into the culture medium to induce apoptosis of the IEC-18 cells. Twenty four (24) hours after the addition of indomethacin, the cells were collected and processed for flow cytometry analysis. Ten thousand (10,000) cells were sorted for each sample, and the percentage of apoptotic cells was calculated.

Series [2] has as its system AGS cells. The experiment in a line: Indomethacin-induced apoptosis of AGS gastric epithelial cells (flow cytometry). As to conditions: FIG. 2. The series is classed as cell-based. Here is the method:
Studies similar to those described for Examples 38 to 40 were conducted on cultured human gastric epithelial cells. This cell line, designated as AGS, was purchased from ATCC. […] Prostaglandin EP4 agonist 1 was given at four different concentrations to separate samples of the cells in a serum-free medium. One hour later, indomethacin at 400 μM was added into the culture medium in three of the samples to induce apoptosis of the AGS cells. Twenty four (24) hours after the addition of indomethacin, the cells were collected and processed for flow cytometry analysis. Ten thousand (10,000) cells were sorted for each sample, and the percentage of apoptotic cells was calculated.
For orientation: Flow cytometry measures light scatter and fluorescence of single cells or particles in a stream.

Series [3] has as its system gastric mucous cells. The experiment in a line: BrdU immunostaining of stomach tissue sections from indomethacin-dosed mice. It is filed as in vivo, mouse. As to conditions: given prior to indomethacin, FIG. 7. The method, then: Each of prostagiandin EP4 agonist 1 and PGE 1 analog Misoprostol was given to C57BL/6 mice at two or three concentrations. Twenty four (24) hours and 30 minutes later, the NSAID indomethacin was given at 20 mg/kg to induce stomach lesions and stomach inflammation. Twenty four (24) hours after indomethacin dosing, the mice were sacrificed and the stomach lesions were scored histopathologically and by gross lesion count.
BrdU immunostaining was performed on stomach tissue sections from mice treated with the prostaglandin EP4 agonist 1 and the PGE1 analog Misoprostol. Incorporation of BrdU label, as detected with positive BrdU immunostaining, is indicative of cell growth/regeneration. The abilities of prostaglandin EP4 agonist 1 and the PGE1 analog Misoprostol to regenerate gastric epithelial cells when given prior to indomethacin dosing were compared. The mean percentages of BrdU label incorporated cells in stomach tissue sections and the standard errors of the means from both treatments are shown in FIG. 7.

With `CCCCC[C@H](O)/C=C/[C@H]1[C@H](O)CC(=O)[C@@H]1C/C=C\CCCC(=O)O` [PGE2, prostaglandin E2, reference compound], the “reduction of indomethacin-induced apoptosis” value in series [1] (serum-free medium, indomethacin 100 μM added 1 h after compound) was “about 65%”.
Consider `COc1ccc2c(c1)c(CC(=O)O)c(C)n2C(=O)c1ccc(Cl)cc1` [Indomethacin, indomethacin, reference compound], for which the “apoptosis induced by indomethacin itself” value in series [2] (indomethacin 400 μM, 24 h) is “about 30%”.
Take `CC1(C)C(=O)[C@H](C/C=C\CCCC(=O)O)[C@@H](/C=C/C(O)CCc2sc3ccccc3c2Cl)[C@@H]1O` (stereo partly drawn) [prostaglandin EP4 agonist 1]: the “effect on indomethacin-induced apoptosis (in words)” value in series [1] (indomethacin 100 μM) is listed as “reduced indomethacin-induced apoptosis significantly”. Also, the “apoptosis or cell death with the agonist alone (no indomethacin)” value in series [2] (serum-free medium) was “very little or substantially no apoptosis or cell death”. The “restoration of regenerative ability of gastric mucous cells, BrdU label (in words)” value in series [3] was “significant restoration”. Further, in series [3] (maximum dose employed), the “restoration of regenerative ability of gastric mucous cells injured by indomethacin (BrdU label)” value is reported as “about 25%”.
